Test [1] relates to MUC 5AC 5' regulatory region (M4-2 luciferase reporter gene construct) in HM3 cells. Briefly: Inhibition of smoke-induced luciferase activity in HM3 cells transfected with M4-2 reporter construct. Type of test: cell-based, human. An excerpt:
A DNA fragment extending from −3752 bp to +68 bp was cloned into the MluI/Smal site of the pGL3 vector (Promega). pGL3 contains a luciferase gene downstream from the Smal site. This construct, referred to as M4-2, was deposited with the American Type Culture Collection as ATCC designation 98701. M4-2 was co-transfected with pcDNA3, containing the neomycin resistance gene, into the epithelial cell line HM3. G418-selected colonies were pooled, expanded, and used in luciferase assays.
HM3 colon carcinoma cells (Kuan, et al. (1987) Cancer Res. 47:5715-5724) or NCIH292 lung carcinoma cells (Levine, et al. (1995) Am. J Respir. Disease 12:196-204) were transfected with the 4.0 Kb MUC 5AC reporter gene construct, M4-2, or the −614 construct from Example 2. Transfection was carried out essentially as described in Felgner et al. (1987), supra. In brief, 2 μl lipofectamine and 1 μg DNA were added to, approximately 5×10^6 cells in 100 μl of Optimen (Gibco) and incubated at room, temperature for about 30 minutes. The mixture was then diluted to 1 ml and added to one culture well of a 6 well plate. G418-selected colonies were pooled, expanded and used in luciferase assays.
Environmental tobacco smoke was used as a mucomone. Culture medium DME-F 12 (Dulbecco's Modified Eagle's:Haam's F12 at 1:1) was exposed to tobacco smoke at various concentrations, for 6 hours. Exposure of the medium was carried out in open culture dishes in an enclosed container into which tobacco smoke produced by burning cigarettes was introduced in a controlled manner. Smoke concentration was measured in units of total suspended particles/ml (TSP/ml). Transfected cells were transferred into the smoke-exposed medium (in 6-well plates, 5×10^5 cells per well) and incubated for various times. The cells were then harvested, lysed and the luciferase activity determined as described in Li et al. (1997).
Several possible inhibitors of mucomone-induced mucin production were tested for their effect on the smoke induced luciferase activity described in Example 3. Inhibitors tested included the inhibitors Genistein (Calbiochem), anti-MEK (PD98059; Alessi et al. 1995), PKC-I (Bisindolymaleimide) and PKA-l (KT 5720, Calbiochem). HM3 cells transfected with the 4.0 KB MUC 5AC construct, M4-2, were incubated in smoke-exposed medium as described in Example 3. The inhibitors were added to the cells at the concentrations indicated in Table 2 for various times before the cells were transferred to the smoke medium. Additional inhibitor was added to the smoke medium after the cells were transferred.

Test [2] relates to MUC 2 gene transcription in epithelial cells. As to conditions: epithelial cells pre-incubated with inhibitor; cited from earlier work.

Take `CN(C)CCCn1cc(C2=C(c3c[nH]c4ccccc34)C(=O)NC2=O)c2ccccc21` [Bisindolymaleimide]: in test [1] (Bisindolymaleimide 2.5 nM to 10 nM, added 1 hr before smoke medium), the “relative luciferase activity (RLA) induced by smoke medium, with vs without inhibitor” value is given as “lower”.

For `O=c1c(-c2ccc(O)cc2)coc2cc(O)cc(O)c12` [Genistein], in test [1] (Genistein 30 μM, added 30 min-2 hr before smoke medium), the “relative luciferase activity (RLA) induced by smoke medium, with vs without inhibitor” value is on record as “lower”. Besides, in test [2], the “effect of pre-incubation on the PA LPS-induced increase in MUC 2 transcription” value was “abolished the increase in transcription”.

For the molecule `CCCCCCOC(=O)[C@]1(O)C[C@@H]2O[C@@]1(C)n1c3ccccc3c3c4c(c5c6ccccc6n2c5c31)C(=O)NC4` [KT 5720], the “relative luciferase activity (RLA) induced by smoke medium, with vs without inhibitor” value in test [1] (KT 5720 0.1 to 0.5 μM, added 15 min-1 hr before smoke medium) was “lower”.

As for `COc1cccc(-c2cc(=O)c3ccccc3o2)c1N` [PD98059], the “relative luciferase activity (RLA) induced by smoke medium, with vs without inhibitor” value in test [1] (PD98059 50-100 μM, added 1 hr before smoke medium) was “lower”.

Source of the values: patent US6440672B1, “Compositions and methods for the inhibition of MUC-5 mucin gene expression” (The Regents of the University of California, priority 1998, dated 2002).
